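Each compound was tested at five concentrations against cells in 96-well plates for 48 hours. The concentration for 50% growth inhibition is given as GI50.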 Active and inactive are the calls of the source. Rule as the data show it: active = GI50 up to about 1.1 µM and inactive = higher.
Tests used:
Assay in all cases: DTP human tumour cell line panel, 48 h
786-0 = tested on: 786-0
ACHN = tested on: ACHN
CAKI-1 = tested on: CAKI-1
COLO 205 = tested on: COLO 205
HCT-116 = tested on: HCT-116
HL-60 = tested on: HL-60
HOP-62 = tested on: HOP-62
LOX IMVI = tested on: LOX IMVI
M14 = tested on: M14
Malme-3M = tested on: Malme-3M
NCI-H23 = tested on: NCI-H23
NCI-H460 = tested on: NCI-H460
OVCAR-3 = tested on: OVCAR-3
OVCAR-5 = tested on: OVCAR-5
SK-MEL-2 = tested on: SK-MEL-2
SNB-75 = tested on: SNB-75
U-251 = tested on: U-251
UACC-257 = tested on: UACC-257
UACC-62 = tested on: UACC-62

Measured: GI50

CC1=C2CCCC2C/C(=N/Nc2ccc([N+](=O)[O-])cc2[N+](=O)[O-])CC1 (centres undefined)
inactive: 786-0 > 100 µM | ACHN > 100 µM | CAKI-1 > 100 µM | COLO 205 > 100 µM | HCT-116 > 100 µM | HL-60 11.1 µM | HOP-62 > 100 µM | LOX IMVI > 100 µM | M14 > 100 µM | Malme-3M > 100 µM | NCI-H23 > 100 µM | NCI-H460 > 100 µM | OVCAR-3 > 100 µM | OVCAR-5 > 100 µM | SK-MEL-2 > 100 µM | SNB-75 69.7 µM | U-251 > 100 µM | UACC-257 > 100 µM | UACC-62 > 100 µM

Cc1ccc2c(c1)NC(=O)C(N=[N+]=[N-])(c1ccccc1)C2=O (centres undefined)
inactive: 786-0 30.5 µM | ACHN 41.1 µM | CAKI-1 24.4 µM | COLO 205 14.1 µM | HCT-116 35.2 µM | HL-60 16.4 µM | HOP-62 65.9 µM | LOX IMVI 18.3 µM | M14 17 µM | Malme-3M 32.5 µM | NCI-H23 20 µM | NCI-H460 23.6 µM | OVCAR-3 18.9 µM | OVCAR-5 33 µM | SK-MEL-2 17.9 µM | SNB-75 33.4 µM | U-251 25.8 µM | UACC-257 29.5 µM | UACC-62 22.2 µM

CCN(CC)CCCN(c1cc(OC)cc2nccnc12)S(=O)(=O)c1ccc(C)cc1
inactive: 786-0 > 100 µM | ACHN > 100 µM | CAKI-1 > 100 µM | COLO 205 > 100 µM | HL-60 > 100 µM | HOP-62 > 100 µM | LOX IMVI > 100 µM | M14 > 100 µM | Malme-3M > 100 µM | NCI-H23 > 100 µM | NCI-H460 > 100 µM | OVCAR-3 > 100 µM | OVCAR-5 > 100 µM | SK-MEL-2 > 100 µM | SNB-75 37.2 µM | U-251 > 100 µM | UACC-257 > 100 µM | UACC-62 > 100 µM

COc1ccc(N(C)CN(C)c2nc(N(C)C)nc(N(C)C)n2)cc1
inactive: 786-0 > 100 µM | ACHN > 100 µM | CAKI-1 > 100 µM | COLO 205 > 100 µM | HCT-116 > 100 µM | HL-60 > 100 µM | HOP-62 > 100 µM | LOX IMVI > 100 µM | M14 > 100 µM | Malme-3M > 100 µM | NCI-H23 > 100 µM | NCI-H460 > 100 µM | OVCAR-3 > 100 µM | OVCAR-5 > 100 µM | SK-MEL-2 > 100 µM | SNB-75 > 100 µM | U-251 > 100 µM | UACC-257 > 100 µM | UACC-62 > 100 µM

O=c1/c(=C/c2ccccc2[N+](=O)[O-])sc2nnc(-c3ccco3)n12
inactive: 786-0 42 µM | ACHN 52.5 µM | CAKI-1 39.7 µM | COLO 205 30.4 µM | HCT-116 26.9 µM | HL-60 24.8 µM | HOP-62 19.3 µM | LOX IMVI 16.9 µM | M14 18 µM | Malme-3M 23 µM | NCI-H23 22.2 µM | NCI-H460 25.2 µM | OVCAR-3 17.7 µM | OVCAR-5 50.2 µM | SK-MEL-2 15.8 µM | SNB-75 25.8 µM | U-251 21.2 µM | UACC-257 33.9 µM | UACC-62 25.8 µM

O=C1c2cccc3cccc(c23)C(=O)N1CCCN1CCN(CCCN2C(=O)c3cccc4cccc(c34)C2=O)CC1
inactive: 786-0 > 100 µM | ACHN > 100 µM | CAKI-1 > 100 µM | COLO 205 > 100 µM | HCT-116 > 100 µM | HL-60 > 100 µM | HOP-62 > 100 µM | LOX IMVI > 100 µM | M14 > 100 µM | Malme-3M > 100 µM | NCI-H23 > 100 µM | NCI-H460 > 100 µM | OVCAR-3 > 100 µM | OVCAR-5 > 100 µM | SK-MEL-2 > 100 µM | SNB-75 > 100 µM | U-251 > 100 µM | UACC-257 > 100 µM | UACC-62 > 100 µM

COc1ccc(C)cc1-c1ccc(-c2cc(C)ccc2OC)o1
inactive: 786-0 > 100 µM | ACHN > 100 µM | CAKI-1 > 100 µM | COLO 205 > 100 µM | HCT-116 > 100 µM | HL-60 86.5 µM | HOP-62 > 100 µM | LOX IMVI > 100 µM | M14 > 100 µM | Malme-3M 66.4 µM | NCI-H23 > 100 µM | NCI-H460 > 100 µM | OVCAR-3 > 100 µM | OVCAR-5 87.1 µM | SK-MEL-2 56.9 µM | SNB-75 > 100 µM | U-251 > 100 µM | UACC-257 > 100 µM | UACC-62 > 100 µM

NNC(=O)C(=O)NN=C(C(Cl)(Cl)CO)C(Cl)(Cl)CO
inactive: 786-0 36.4 µM | ACHN 31.3 µM | CAKI-1 26.9 µM | COLO 205 > 100 µM | HCT-116 20.6 µM | HL-60 22.1 µM | HOP-62 70.8 µM | LOX IMVI 16.9 µM | M14 24.4 µM | Malme-3M 19.8 µM | NCI-H23 30.5 µM | NCI-H460 44.9 µM | OVCAR-3 25.6 µM | OVCAR-5 31.3 µM | SK-MEL-2 22.1 µM | SNB-75 32.5 µM | U-251 19.5 µM | UACC-257 30.6 µM | UACC-62 65.5 µM

COC(=O)[C@@]12C3=NO[C@]1(C(=O)OC)C(O[Si](C)(C)C(C)(C)C)[C@@H](OC(C)=O)[C@@H](OC(C)=O)[C@@H]2[C@@H](OCc1ccccc1)CC3 (some centres undefined)
inactive: 786-0 14.2 µM | ACHN 4.44 µM | CAKI-1 3.8 µM | COLO 205 > 100 µM | HCT-116 5.07 µM | HL-60 3.86 µM | HOP-62 > 100 µM | LOX IMVI 8.81 µM | M14 > 100 µM | Malme-3M 7.28 µM | NCI-H23 4.9 µM | NCI-H460 3.59 µM | OVCAR-3 13.5 µM | OVCAR-5 8.79 µM | SK-MEL-2 8.26 µM | SNB-75 8.63 µM | U-251 8.99 µM | UACC-257 17.4 µM | UACC-62 > 43.6 µM

COc1cc(/C=C/c2ccc(Br)cc2)cc(OC)c1OC
inactive: 786-0 19.9 µM | ACHN 18.9 µM | CAKI-1 6.24 µM | COLO 205 8.83 µM | HCT-116 4.55 µM | HL-60 3.74 µM | HOP-62 13.7 µM | LOX IMVI 14.1 µM | M14 14.4 µM | Malme-3M 6.08 µM | NCI-H23 16.3 µM | NCI-H460 11.6 µM | OVCAR-3 7.8 µM | OVCAR-5 16.6 µM | SK-MEL-2 14.6 µM | SNB-75 8.38 µM | U-251 10.1 µM | UACC-257 13.5 µM | UACC-62 8.02 µM
